The test system of assay [1] is A549. As to the kind of experiment: Antiproliferative activity against human A549 cells incubated for 48 hrs by MTT assay. Format: functional, cell-based. The note with it: A549, 48 h. (Formazan colour is commonly taken as a measure of viable cells.)
Assay [2] relates to HeLa. As to the kind of experiment: Antiproliferative activity against human HeLa cells incubated for 48 hrs by MTT assay. In kind it is functional, cell-based.
In assay [3] the test system is HCT-116. Nature of the assay: Antiproliferative activity against human HCT116 cells incubated for 48 hrs by MTT assay. Format: functional, cell-based. The note with it: HCT-116, 48 h.
For assay [4], the system named is HepG2. As to the kind of experiment: Antiproliferative activity against human HepG2 cells incubated for 48 hrs by MTT assay. Format: functional, cell-based. The note with it: HepG2, 48 h.
Assay [5] relates to MDA-MB-231. Nature of the assay: Antiproliferative activity against human MDA-MB-231 cells incubated for 48 hrs by MTT assay. Format: functional, cell-based. The note with it: MDA-MB-231, 48 h.
Assay [6] in a line: Inhibition of porcine brain tubulin polymerization measured every 60 secs for 90 mins by DAPI dye based fluorescence assay. The arrangement: species or system Sus scrofa.

A value given as a limit tells only on which side of the number the result lay.

The term IC50 denotes the concentration at which inhibition is half-maximal. Turning to `COc1ccc(N(C)c2ccnc(Cl)n2)cc1OCCBr`, the IC50 in assay [1] is 4640 nM; in assay [2], 3310 nM; in assay [3] it was 5670 nM; in assay [4], 7720 nM; in assay [5], 6620 nM.

Consider `Cc1cc(N(C)c2ccc([Se]C#N)cc2)nc(C)n1`, for which the IC50 in assay [1] is 207 nM; in assay [2], 252 nM; in assay [3], 245 nM; in assay [4] it was 155 nM; in assay [5], 614 nM.

Regarding `COc1ccc(N(C)c2ccnc(Cl)n2)cc1OCCCCCBr`, the IC50 in assay [1] is 9720 nM; in assay [2], 7080 nM; in assay [3], greater than 10000 nM; in assay [4], greater than 10000 nM; in assay [5] it was greater than 10000 nM.

On to `COc1ccc(N(C)c2ccnc(Cl)n2)cc1[N+](=O)[O-]`, for which the IC50 in assay [1] amounted to 3780 nM; in assay [2], 4720 nM; in assay [3], 4700 nM; in assay [4], 6120 nM; in assay [5] it was 8120 nM.

Turning to `COc1ccc(N(C)c2ccnc(Cl)n2)cc1O`, the concentration for half-maximal inhibition (IC50) in assay [1] amounted to 381 nM; in assay [2] it was 96 nM; in assay [3] it was 422 nM; in assay [4] it was 464 nM; in assay [5] it was 833 nM; in assay [6], 6.11 µM.

In the case of `COc1ccc(N(C)c2cc(C)nc(C)n2)cc1[N+](=O)[O-]`, the IC50 turned out to be 3270 nM in assay [1]; 3720 nM in assay [2]; 4670 nM in assay [3]; 2980 nM in assay [4]; 3440 nM in assay [5].

As for `C[Se]c1ccc(N(C)c2cc(C)nc(C)n2)cc1`, the concentration for half-maximal inhibition (IC50) was 218 nM in assay [1]; 138 nM in assay [2]; 465 nM in assay [3]; 198 nM in assay [4]; 321 nM in assay [5].

`COc1ccc(N(C)c2ccnc(Cl)n2)cc1OCCC[Se]C#N`: the IC50 is 3710 nM in assay [1]; 4710 nM in assay [2]; 3920 nM in assay [3]; 5150 nM in assay [4]; 1480 nM in assay [5].

`COc1ccc(N(C)c2ccnc(Cl)n2)cc1`: the half-maximal inhibitory concentration (IC50) in assay [1] was found to be 611 nM; in assay [2], 917 nM; in assay [3], 1460 nM; in assay [4], 2120 nM; in assay [5], 2820 nM.

As to `COc1ccc(N(C)c2ccnc(Cl)n2)cc1OCCCBr`, the IC50 in assay [1] came out at 862 nM; in assay [2], 307 nM; in assay [3] it was 1970 nM; in assay [4] it was 1240 nM; in assay [5], 1280 nM.

Turning to `COc1ccc(N(C)c2ccnc(Cl)n2)cc1OCCCC[Se]C#N`, the IC50 in assay [1], in assay [2], in assay [3], in assay [4] and in assay [5] was greater than 10000 nM each time.

Take `COc1ccc(N(C)c2cc(C)nc(C)n2)cc1`: the IC50 turned out to be 277 nM in assay [1]; 322 nM in assay [2]; 1320 nM in assay [3]; 824 nM in assay [4]; 3650 nM in assay [5].

For `COc1ccc(N(C)c2ccnc(Cl)n2)cc1OCCCCBr`, the 50% inhibitory concentration (IC50) is 591 nM in assay [1]; 307 nM in assay [2]; 1140 nM in assay [3]; 168 nM in assay [4]; 992 nM in assay [5].

Take `COc1ccc(N(C)c2cc(C)nc(C)n2)cc1Cl`: the concentration for half-maximal inhibition (IC50) in assay [1] is 780 nM; in assay [2], 316 nM; in assay [3], 1190 nM; in assay [4], 787 nM; in assay [5] it was 1900 nM.

For `COc1ccc(N(C)c2nc(C)nc3ccccc23)cc1` [VERUBULIN], the 50% inhibitory concentration (IC50) in assay [1] was 4 nM; in assay [2], 6 nM; in assay [3] it was 5 nM; in assay [6], 2.74 µM.

Consider `COc1ccc(N(C)c2cc(C)nc(C)n2)cc1F`, for which the IC50 came out at 632 nM in assay [1]; 471 nM in assay [2]; 584 nM in assay [3]; 2060 nM in assay [4]; 2780 nM in assay [5].

With `COc1ccc(N(C)c2ccnc(Cl)n2)cc1Cl`, the IC50 in assay [1] came out at 621 nM; in assay [2], 517 nM; in assay [3], 1170 nM; in assay [4], 2630 nM; in assay [5] it was 1380 nM.

In the case of `COc1ccc(N(C)c2ccnc(Cl)n2)cc1OCC[Se]C#N`, the half-inhibitory concentration (IC50) in assay [1] was 463 nM; in assay [2] it was 436 nM; in assay [3] it was 1220 nM; in assay [4], 1670 nM; in assay [5], 2750 nM.

Regarding `COc1ccc(N(C)c2ccnc(Cl)n2)cc1OCCCCC[Se]C#N`, the IC50 in assay [1], in assay [2], in assay [3], in assay [4] and in assay [5] was greater than 10000 nM in each case.

As for `COc1ccc(N(C)c2ccnc(Cl)n2)cc1F`, the IC50 was found to be 651 nM in assay [1]; 241 nM in assay [2]; 914 nM in assay [3]; 844 nM in assay [4]; 1280 nM in assay [5].

The record behind these values is ChEMBL document CHEMBL4190378, “Synthesis and evaluation of new 2-chloro-4-aminopyrimidine and 2,6-dimethyl-4-aminopyrimidine derivatives as tubulin polymerization inhibitors” (Bioorg Med Chem Lett, 2018).
